Experimental data reported in patent US20070071783A1, “Pheromone attractants for the green mirid” (priority 2004, published 2007).
Marks after values point to notes of the source that are not given here.

How the values were obtained:
[1] = tested on: mullein bug, Campylomma verbasci; conditions: blend released at rates of 91 and 183 μL per day; Smith et al. 1991, McBrien et al. 1994; cited from earlier work
Phytocoris relativus = conditions: Millar & Rice 1998; cited from earlier work
Phytocoris californicus = conditions: Millar & Rice 1998; Millar et al. 1997; cited from earlier work
[2] = tested on: green mirid, Creontiades dilutus; assay: Attract-and-kill Experiment 1: sprayed-on formulation with added insecticide (methomyl); type: in vivo; conditions: pigeon peas, Mullaley, about 2.3% volatiles in carrier, methomyl 0.5%, 5 m of row
Source text: The trial was set up in late flowering pigeon peas near Mullaley, NSW. The pheromone components were mixed with the formulation base from Magnet®, the commercial embodiment of the compositions described in WO 02/089577, the contents of which are incorporated herein by reference.
The plant volatile components of Magnet® were not included. The toxicant was methomyl at a concentration of 0.5% active ingredient.
There were four treatments: • 1) Control (no pheromone components added; carrier only) • 2) 12 ml hexyl hexanoate added to 500 ml of carrier • 3) 12 ml (E)-2 hexenyl hexanoate added to 500 ml of carrier • 4) 10 ml hexyl hexanoate plus 2 ml (E)-2 hexenyl hexanoate added to 500 ml carrier
Thus, in treatments 2-4 the final concentration of volatile pheromone components was about 2.3%. Treatment 4 had the two components in the optimum ratio as determined by trapping experiments.
Approximately 100 ml of each mixture was applied to 5 m of row of the pigeon peas, being shaken from a plastic bottle onto the tops of the plants. There were three replicates of each treatment, with buffer zones of 20 m surrounding them. Black plastic weed mat, 90 cm wide, was placed in the furrows on both sides,of the treated rows. It was secured around the bases of the plants using clothes pegs. This was done to facilitate finding dead GM. The treated areas were searched each morning over the next three days, and any dead GM found were sexed. Two pheromone traps, using blend GM2 as previously described, were also operated near the experimental site. At the conclusion of the experiment, five replicate samples using beat sheets were taken in the vicinity of the sprayed regions.

[3] = tested on: green mirid, Creontiades dilutus; assay: Field trapping bioassays: rubber septa lures in delta traps; type: in vivo; conditions: Experiment 1, soybeans, Cecil Plains; for Mean trap catch: 2 mg lure, mean ± s.e.
Experimental: A series of trials involving blends of the major component, hexyl hexanoate and the minor component (E)-2 hexenyl hexanoate in various ratios, as coded and presented in Table 1, as well as the single components, were tested in a series of field trapping experiments. After the initial optimisation, two other components (methyl salicylate and (Z)-3 hexenyl acetate), found in both the male and female extracts, were tested by adding them to the optimised blend.
Lures were prepared using rubber septa. Each lure was loaded with 2 mg of the blend with 10% butylated hydroxytoluene (BHT) added as an anti-oxidant. Control lures were loaded with BHT only.
Field experiments were conducted at Cecil Plains (Qld), Narrabri, Tamworth, Mullaley and Armidale (NSW). The experimental designs were Latin Squares with treatment (pheromone blend), trap position and day as the factors. Traps were placed in a grid at intervals of 25-50 m, cleared daily, and rotated to different positions in the Latin Square designs. Delta traps made out of plastic (Corflute®) were used.
This experiment aimed to test blends against individual components of the female sex pheromone. A 4×4 Latin square design with 4 rotation periods, 4 blend locations and 4 treatments was set up in soybeans in Cecil Plains. Traps were located 100 m from each other and cleared every day before rotation. […] They were only caught in traps baited with the blend GM1 at an average of 3.9 males per trap. All insects caught were sexed morphologically and found to be males. […]
A 3×3 Latin Square experiment, replicated at two different sites in mung beans and one site in a slashed lucerne field was set up in Mullaley, NSW. This experiment involved blends GM2, GM12, GM13. In the mung beans at Site 1, blend type was the only significant factor (P<0.01).
Blends GM2, GM12, GM17 and GM19 were tested in a 4×4 Latin Square experiment in lucerne at Piallamore, NSW. […] Analysis of variance on the logarithmically transformed data indicated no significant differences (P>0.05) between the blends.
This experiment aimed at testing the effect of septa loading on trap catches. It involved the use of blend GM2 with a 2, 20 and 40 mg loading respectively. The ratio of hexyl hexanoate to (E)-2-hexenyl acetate in all blends was 5:1. The design was a 3×3 Latin Square set up at two different sites in mung beans at Mullaley, NSW. […] Trap location and day were also non significant (Table 11).
This experiment aimed at testing the effects of methyl salicylate and (Z)-3 hexenyl acetate, identified in both male and female extracts on the optimised blend. The hypothesis was that they might increase the attractiveness of the blend. Blends GM2, GM14, GM15 and GM16 were used in a 4×4 Latin Square experiment conducted in lucerne at Piallamore, NSW. […]

[4] = Day 1, standard error in brackets

Row | Compound | Attractiveness of lures in field studies [1] | Mean number of female adults found (killed) [2, 4] | Mean number of male adults found (killed) [2, 4] | Mean number of nymphs found (killed) [2, 4] | Mean number of female adults found (killed) ([2]; Day 2) | Mean number of male adults found (killed) ([2]; Day 2) | Mean number of nymphs found (killed) ([2]; Day 2) | GM caught in baited traps, average [3] | Mean trap catch [3] | further results
1 | C/C=C/COC(=O)CCC [(E)-2-butenyl butyrate] | inactive | – | – | – | – | – | – | – | – | –
2 | CCCCC/C=C/COC(C)=O [(E)-2-octenyl acetate] | – | – | – | – | – | – | – | – | – | Inhibition of P. relativus males (Phytocoris relativus): did not inhibit
3 | CCCCC/C=C/COC(=O)CCC [(E)-2-octenyl butyrate] | – | – | – | – | – | – | – | – | – | Inhibition of attraction of P. californicus males to traps (Phytocoris californicus): inhibited attraction
4 | CCCCCCOC(=O)CCCCC [GM5, hexyl hexanoate] | – | 1.3 (0.3) | 1.3 (0.3) | 0.3 | 0 | 0 | 0 | did not attract any GM | 0.0 ± 0^b | –
5 | CCC/C=C/COC(=O)CCCCC [GM6, (E)-2-hexenyl hexanoate] | – | 1.0 (1.0) | 3.0 (1.1) | 0.3 (0.3) | 0 | 1.3 | 0 | did not attract any GM | 0.0 ± 0^b | –
6 | CCCCOC(=O)CCC [butyl butyrate] | inactive | – | – | – | – | – | – | – | – | –
